In patent publication US9233077B2, “Delayed release cysteamine bead formulation, and methods of making and using same” (RAPTOR PHARMACEUTICALS INC., priority 2013, dated 2016):

Experiment: Plasma protein binding of cysteamine
Format: in vitro ADME
Conditions: human plasma proteins, predominantly albumin

fraction unbound: ~0.48
Structure (SMILES): NCCS [cysteamine]
